Measurements: patent US10214514B2, “Hedgehog antagonists having zinc binding moieties” (Curis, Inc., priority 2011, dated 2019)
Where “and” joins values, the source holds several entries; their conditions need not be identical. Identical values can stand only once.

Key:
[1] = test system: Hedgehog pathway signaling (Gli-Luc response, OCT-SHH activated 10 Tl/2 (s12) cells); test: Hedgehog signalling inhibition, Gli-Luc reporter assay (Hh Reporter assay); assay type: cell-based
Experimental: Example 17: An In Vitro Assay which Determines the Ability of a Test Compound to Inhibit Hedgehog Signalling
Compounds to be tested were dissolved in DMSO to a concentration of 10 mM, and stored at −20° C. To activate the Hedgehog pathway in the assay cells, an octylated (lipid-modified) form of the N-terminal fragment of the Sonic Hedgehog protein (OCT-SHH) was used. This N-terminal SHH fragment is produced bacterially. See, for example, Taylor F R, et al., Biochemistry, 2001, 40: 4359-71.
Compounds were tested in the“Gli-Luc” assay below, using the cell line 10 Tl/2 (s12), wherein the cells contain a Hedgehog-responsive reporter construct utilizing Luciferase as the reporter gene. In this way, Hedgehog pathway signaling activity is measured via the Gli-Luc response.
10 Tl/2 (s12) cells were plated in a 96-well micro-titer plate (MTP) at 20,000 cells/well in full medium [DMEM with 10% FBS]. Then plates were placed in the incubator for incubation overnight (0/N), at 37° C. and 5% CO2. After 24 h, the medium was replaced with Luciferase-assay medium (DMEM with 0.5% FBS). Test compounds were thawed and diluted in assay medium at 3:1000 (about 300-fold) resulting in a starting concentration of about 0.0003 uM to 30 uM. Subsequently, 150 ul of each sample was added to the first wells (in triplicate). The MTP samples were then diluted at 3-fold dilutions to a total of seven wells, ultimately resulting in a regiment of seven dilutions in triplicate, for each compound. Next, the protein ligand OCT-SHH was diluted in Luciferase-assay medium and added to each well at a final concentration of 0.3 μg/ml. Plates were then returned to the incubator for further incubation O/N, at 37° C. and 5% CO2. After about 24 h, plates were removed from the incubator and the medium was aspirated/discarded.
Wells were washed once with assay buffer [PBS+1 mM Mg^2+ and 1 mM Ca^2+]. Then 50 μl of assay buffer was added to each well. The Luciferase assay reagent was prepared as described by the vendor (LucLite kit from Packard), and 50 μl was added to each well. Plates were incubated at room temperature (RT) for about 30 minutes after which the signals were read, again at RT, on a Topcount (Packard). […]

[2] = test system: HDACs (HeLa cell nuclear extracts); test: HDAC enzymatic activity inhibition assay (Biomol Color de Lys system); assay type: biochemical; details: class symbols
Experimental: HDAC inhibitory activity was assessed using the Biomol Color de Lys system (AK-500, Biomol, Plymouth Meeting, Pa.). Briefly, HeLa cell nuclear extracts were used as a source of HDACs. Different concentrations of test compounds were serially diluted in dimethylsulfoxide (DMSO) and added to HeLa cell nuclear extracts in the presence of a colorimetric artificial substrate. […] Reactions were carried out at room temperature (25° C.) for 1 hour before addition of developer for termination. […] Data were analyzed using GraphPad Prism (v4.0a) with a sigmoidal dose response curve fitting for IC50 calculation.

[3] = S12, Gli-Luc reporter, class symbols

IC50 [1, 3]	IC50 [2]	melting point	IC50 ([1]; Gli-Luc reporter, numeric values for reference compounds)	IC50 ([1]; S12, Gli-Luc reporter, numeric values for reference compounds)	Structure (SMILES)
100 to 1000 nM	100 to 1000 nM				CS(=O)(=O)c1ccc(C(=O)Nc2ccc(Cl)c(-c3ccc(/C=C/C(=O)NO)cn3)c2)c(Cl)c1 [Compound 1, (E)-2-chloro-N-(4-chloro-3-(5-(3-(hydroxyamino)-3-oxoprop-1-enyl)pyridin-2-yl)phenyl)-4-(methylsulfonyl)benzamide]
100 to 1000 nM	100 to 1000 nM				CS(=O)(=O)c1ccc(C(=O)Nc2ccc(Cl)c(-c3ccc(C(=O)NO)cn3)c2)c(Cl)c1 [Compound 5, 6-(2-Chloro-5-(2-chloro-4-(methylsulfonyl)benzamido)phenyl)-N-hydroxynicotinamide]
> 1000 nM	100 to 1000 nM				CS(=O)(=O)c1ccc(C(=O)Nc2ccc(Cl)c(-c3ncc(C(=O)NO)cn3)c2)c(Cl)c1 [Compound 7, 2-[2-Chloro-5-(2-chloro-4-methanesulfonyl-benzoylamino)-phenyl]-pyrimidine-5-carboxylic acid hydroxyamide]
100 to 1000 nM	10 to 100 nM	140 to 145 °C			CS(=O)(=O)c1ccc(C(=O)Nc2ccc(Cl)c(-c3ccc(OCCCCCCC(=O)NO)cn3)c2)c(Cl)c1 [Compound 23, 2-Chloro-N-{4-chloro-3-[5-(6-hydroxycarbamoyl-hexyloxy)-pyridin-2-yl]-phenyl}-4-methanesulfonyl-benzamide]
10 to 100 nM	100 to 1000 nM				O=C(CCCCCCNS(=O)(=O)c1ccc(C(=O)Nc2ccc(Cl)c(-c3ccccn3)c2)c(Cl)c1)NO [Compound 59, 2-Chloro-N-(4-chloro-3-(pyridin-2-yl)phenyl)-4-(N-(7-(hydroxyamino)-7-oxoheptyl)sulfamoyl)benzamide]
1 to 10 nM	10 to 100 nM	172 to 173 °C			O=C(NO)c1cnc(N2CCC(CNS(=O)(=O)c3ccc(C(=O)Nc4ccc(Cl)c(-c5ccccn5)c4)c(Cl)c3)CC2)nc1 [Compound 90, 2-(4-((3-Chloro-4-(4-chloro-3-(pyridin-2-yl)phenylcarbamoyl)phenylsulfonamido)methyl)piperidin-1-yl)-N-hydroxypyrimidine-5-carboxamide]
10 to 100 nM	10 to 100 nM	194 to 196 °C			Cc1nc(NCC2CCN(c3ncc(C(=O)NO)cn3)CC2)ccc1C(=O)Nc1ccc(Cl)c(-c2nc3ccccc3[nH]2)c1 [Compound 91, 2-(4-((5-(3-(1H-Benzo[d]imidazol-2-yl)-4-chlorophenylcarbamoyl)-6-methylpyridin-2-ylamino)methyl)piperidin-1-yl)-N-hydroxypyrimidine-5-carboxamide]
100 to 1000 nM	10 to 100 nM				CN(C)c1ccc2[nH]c(-c3cc(NC(=O)c4cccc(OCCCCCCC(=O)NO)c4)ccc3Cl)nc2c1 [Compound 111, N-(4-Chloro-3-(5-(dimethylamino)-1H-benzo[d]imidazol-2-yl)phenyl)-3-(7-(hydroxyamino)-7-oxoheptyloxy)benzamide]
10 to 100 nM	100 to 1000 nM				O=C(/C=C/c1cccc(NS(=O)(=O)c2ccc(C(=O)Nc3ccc(Cl)c(-c4ccccn4)c3)c(Cl)c2)c1)NO [Compound 254, (E)-2-Chloro-N-(4-chloro-3-(pyridin-2-yl)phenyl)-4-(N-(3-(3-(hydroxyamino)-3-oxoprop-1-enyl)phenyl)sulfamoyl)benzamide]
10 to 100 nM	10 to 100 nM	158 to 159 °C			COc1cc(CNc2ncc(C(=O)NO)cn2)cc(C(=O)Nc2ccc(Cl)c(-c3nc4cc(N(C)C)ccc4[nH]3)c2)c1 [Compound 258, 2-(3-(4-Chloro-3-(5-(dimethylamino)-1H-benzo[d]imidazol-2-yl)phenylcarbamoyl)-5-methoxybenzylamino)-N-hydroxypyrimidine-5-carboxamide]
10 to 100 nM	10 to 100 nM				COc1cc(CN(C)c2ncc(C(=O)NO)cn2)cc(C(=O)Nc2ccc(Cl)c(-c3nc4cc(N(C)C)ccc4[nH]3)c2)c1 [Compound 259, 2-((3-(4-Chloro-3-(5-(dimethylamino)-1H-benzo[d]imidazol-2-yl)phenylcarbamoyl)-5-methoxybenzyl)(methyl)amino)-N-hydroxypyrimidine-5-carboxamide]
100 to 1000 nM	10 to 100 nM				CN(Cc1ccc(C(=O)Nc2ccc(Cl)c(-c3ccccn3)c2)c(Cl)c1)c1ncc(C(=O)NO)cn1 [Compound 263, 2-((3-Chloro-4-(4-chloro-3-(pyridin-2-yl)phenylcarbamoyl)benzyl) (methyl)amino)-N-hydroxypyrimidine-5-carboxamide]
	> 1000 nM				O=C(NO)c1cnc(NS(=O)(=O)c2ccc(C(=O)Nc3ccc(Cl)c(-c4ccccn4)c3)c(Cl)c2)nc1 [Compound 265, 2-(3-Chloro-4-(4-chloro-3-(pyridin-2-yl)phenylcarbamoyl)phenylsulfonamido)-N-hydroxypyrimidine-5-carboxamide]
1 to 10 nM	100 to 1000 nM	138 to 139 °C			O=C(NO)c1ccc(OCCNS(=O)(=O)c2ccc(C(=O)Nc3ccc(Cl)c(-c4ccccn4)c3)c(Cl)c2)cc1 [Compound 266, 2-Chloro-N-(4-chloro-3-(pyridin-2-yl)phenyl)-4-(N-(2-(4-(hydroxycarbamoyl)phenoxy)ethyl)sulfamoyl)benzamide]
			24 nM and 13.1 nM	17 nM	COc1cc(OC)cc(C(=O)Nc2ccc(Cl)c(-c3nc4ccc(N(C)C)cc4[nH]3)c2)c1 [Compound A, reference compound]
